Data published in ChEMBL document CHEMBL1777748 (Bioorg Med Chem Lett, 2011).

Experiments:
[1] = target: T1, Prostaglandin D2 receptor 2 (Homo sapiens, UniProt Q9Y5Y4); test: Displacement of [3H]-PGD2 from CRTh2 receptor by scintillation proximity assay
T1 sequence (Q9Y5Y4 whole entry): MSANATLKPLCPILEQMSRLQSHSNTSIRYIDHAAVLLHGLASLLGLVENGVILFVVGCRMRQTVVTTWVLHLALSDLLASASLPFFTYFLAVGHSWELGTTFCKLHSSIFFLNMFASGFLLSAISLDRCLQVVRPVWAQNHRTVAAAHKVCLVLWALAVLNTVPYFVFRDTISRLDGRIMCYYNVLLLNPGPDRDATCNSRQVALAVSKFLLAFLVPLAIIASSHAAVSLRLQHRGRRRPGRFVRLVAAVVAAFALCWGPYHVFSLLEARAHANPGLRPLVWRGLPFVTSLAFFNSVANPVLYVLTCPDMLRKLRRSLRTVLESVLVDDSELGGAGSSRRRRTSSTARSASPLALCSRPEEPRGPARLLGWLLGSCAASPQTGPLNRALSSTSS

[2] = Intrinsic clearance in human liver microsomes
[3] = Intrinsic clearance in rat hepatocytes assessed per 1 x 10^6 cells
[4] = Lipophilicity, log D of the compound at pH 7.4; conditions: buffer

IC50 [1] | microsomal CLint ([2]; liver microsomes) | hepatocyte CLint [3] | microsomal CLint ([2]; microsomes) | logD [4] | SMILES
3980 nM | – | – | – | – | CCS(=O)(=O)c1ccc(-c2cc(C(F)(F)F)ccc2OC(C)(C)C(=O)O)c(C)c1
126 nM | 6 µL/min/mg | 13 µL/min/1e6 cells | – | – | O=C(O)COc1ccc(C(F)(F)F)cc1-c1ccc2c(c1)CCS2(=O)=O
0.1 nM | – | – | – | – | CN(c1ccc(-c2cc(C(F)(F)F)ccc2OCC(=O)O)c(Cl)c1)S(C)(=O)=O
2.2 nM | – | – | – | – | CN(c1ccc(-c2cc(F)ccc2OCC(=O)O)c(Cl)c1)S(C)(=O)=O
0.2 nM | – | – | – | – | CS(=O)(=O)c1ccc(-c2cc(C(F)(F)F)ccc2OCC(=O)O)c(Cl)c1
1.6 nM | < 3 µL/min/mg | 23 µL/min/1e6 cells | – | – | CCS(=O)(=O)c1ccc(-c2cc(C(F)(F)F)ccc2O[C@H](C)C(=O)O)c(C)c1
251 nM | – | – | – | – | O=C(O)COc1ccc(Cl)cc1-c1ccccc1
10 nM | 6 µL/min/mg | 9 µL/min/1e6 cells | – | – | CCCCOc1ccccc1-c1cc(C(F)(F)F)ccc1OCC(=O)O
– | – | 13 µL/min/1e6 cells | < 3 µL/min/mg | – | CCc1ccc(OCC(=O)O)c(-c2ccc(S(C)(=O)=O)cc2)c1
0.6 nM | < 3 µL/min/mg | < 5 µL/min/1e6 cells | – | – | C[C@@H](Oc1ccc(C(F)(F)F)cc1-c1cccc(C#N)c1)C(=O)O
0.3 nM | < 3 µL/min/mg | < 5 µL/min/1e6 cells | – | – | CCS(=O)(=O)c1ccc(-c2cc(C(F)(F)F)ccc2OCC(=O)O)c(Cl)c1
891 nM | – | – | – | – | CCS(=O)(=O)c1ccc(-c2cc(C(F)(F)F)ccc2OCc2nnn[nH]2)c(C)c1
4.1 nM | – | – | – | – | CCS(=O)(=O)c1ccc(-c2cc(Cl)ccc2OCC(=O)O)c(C)c1
251 nM | 12 µL/min/mg | 47 µL/min/1e6 cells | – | 0.3 | COc1ccc(-c2cc(C(F)(F)F)ccc2OCC(=O)O)cc1
5650 nM | < 3 µL/min/mg | 29 µL/min/1e6 cells | – | 2.8 | CCS(=O)(=O)c1ccc(-c2cc(C(F)(F)F)ccc2OCC(N)=O)c(C)c1
2.5 nM | < 4 µL/min/mg | 25 µL/min/1e6 cells | – | – | CCS(=O)(=O)c1ccc(-c2cc(C(F)(F)F)ccc2CCC(=O)O)c(C)c1
1.5 nM | 7 µL/min/mg | < 3 µL/min/1e6 cells | – | – | CCS(=O)(=O)c1ccc(-c2cc(Cl)ccc2OCC(=O)O)c(Cl)c1
0.4 nM | < 3 µL/min/mg | < 3 µL/min/1e6 cells | – | – | Cc1cc(N(C)S(C)(=O)=O)ccc1-c1cc(C(F)(F)F)ccc1OCC(=O)O
0.6 nM | 10 µL/min/mg | 5 µL/min/1e6 cells | – | – | CS(=O)(=O)c1ccc(-c2cc(Cl)ccc2OCC(=O)O)c(Cl)c1
0.8 nM | 13 µL/min/mg | < 3 µL/min/1e6 cells | – | – | CN(c1ccc(-c2cc(C(F)(F)F)ccc2OCC(=O)O)cc1)S(C)(=O)=O
2 nM | – | 20 µL/min/1e6 cells | < 3 µL/min/mg | 1.4 | O=C(O)COc1ccc(C(F)(F)F)cc1-c1ccccc1-c1ccccc1
8.9 nM | – | – | – | – | CCSc1ccc(-c2cc(C(F)(F)F)ccc2OCC(=O)O)cc1
178 nM | – | – | – | 0.3 | CCC(Oc1ccc(C(F)(F)F)cc1-c1ccc(S(=O)(=O)CC)cc1C)C(=O)O (stereo not given)
7.9 nM | – | 4 µL/min/1e6 cells | < 3 µL/min/mg | – | CCS(=O)(=O)c1ccc(-c2cc(Cl)ccc2OCC(=O)O)c(F)c1
56 nM | 12 µL/min/mg | < 3 µL/min/1e6 cells | – | – | CCS(=O)(=O)c1cccc(-c2cc(C(F)(F)F)ccc2OCC(=O)O)c1
355 nM | – | 10 µL/min/1e6 cells | – | – | CCS(=O)(=O)c1ccc(-c2cc(C(F)(F)F)ccc2O[C@@H](C)C(=O)O)c(C)c1
293 nM | – | – | – | – | CCS(=O)(=O)c1ccc(-c2cc(Cl)ccc2OCC(=O)O)c(C(F)(F)F)c1
126 nM | – | – | – | – | N#Cc1ccc(-c2cc(C(F)(F)F)ccc2OCC(=O)O)cc1
0.2 nM | – | < 3 µL/min/1e6 cells | < 4 µL/min/mg | – | N#Cc1ccc(F)c(-c2cc(C(F)(F)F)ccc2OCC(=O)O)c1
19 nM | 7 µL/min/mg | < 3 µL/min/1e6 cells | – | – | CCS(=O)(=O)c1ccc(-c2cc(Cl)ccc2OCC(=O)O)cc1
